# Measured values taken from publication PMC5349910, “Discovery of BPR1K871, a quinazoline based, multi-kinase inhibitor for the treatment of AML and solid tumors: Rational design, synthesis, in vitro and in vivo evaluation” (Oncotarget, 2016).
# Tests used:
# [1] = tested on: MV4-11 cells; test: MTS cell viability assay, MV4-11; format: cell-based, human; settings: Homo sapiens, MV4-11, 72 h, MTS, 72 h; AML-FLT3-ITD (homozygous); supplement values ± SEM; read-out: MV4-11 EC50
# Experimental: (§1) The MTS cell viability assay was conducted as previously described. The MOLM-13 human leukemia cell line was obtained from the German Resource Centre for Biological Material (DSMZ, Braunschweig, Germany); the MV4-11 cell line was purchased from the American Type Culture Collection (ATCC, Manassas, VA, USA). […] To determine cell viability after drug treatment, assay for MOLM-13 and MV4-11 was performed by seeding 10000 cells per well in a 96-well culture plate. […] After 16 h, cells were then treated with vehicle or various concentrations of compound in medium for 72 h. Viable cells were quantified using the MTS method (Promega, Madison, WI, USA) according to the manufacturer's recommended protocol. Results were determined by measuring the absorbance at 490 nm using a plate reader (Victor2; PerkinElmer, Shelton, CT, USA).
# [2] = tested on: MOLM-13 cells; test: MTS cell viability assay, MOLM-13; format: cell-based, human; settings: Homo sapiens, MOLM-13, 72 h, MTS, 72 h; AML-FLT3-ITD (heterozygous); supplement values ± SEM; read-out: MOLM-13 EC50
# Experimental: as §1
# [3] = tested on: U937 cells; test: Anti-proliferative activity, U937; format: cell-based; settings: Homo sapiens, U-937; AML-FLT3-negative; supplement values ± SEM; read-out: U937 EC50
# [4] = tested on: Mia-PaCa2 cells; test: Anti-proliferative activity, Mia-PaCa2; format: cell-based, human; settings: Homo sapiens, MIA PaCa-2, Human Pancreatic Cancer; supplement values ± SEM
# [5] = tested on: HCC827 cells; test: Anti-proliferative activity, HCC827; format: cell-based; settings: Homo sapiens, HCC827; NSCLC-EGFR L858R; supplement values ± SEM; read-out: HCC827 EC50
# [6] = tested on: K562 cells; test: Anti-proliferative activity, K562; format: cell-based; settings: Homo sapiens, K562; CML-Bcr-Abl FLT3-negative; supplement values ± SEM; read-out: K562 EC50
# [7] = tested on: CL-97 cells; test: Anti-proliferative activity, CL-97; format: cell-based, human; settings: CL97; Human Lung Cancer; supplement values ± SEM; read-out: CL-97 EC50
# [8] = tested on: RS4-11 cells; test: Anti-proliferative activity, RS4-11; format: cell-based; settings: Homo sapiens, RS4-11; ALL-wt-FLT3 (homozygous); supplement values ± SEM; read-out: RS4-11 EC50
# [9] = tested on: H1975 cells; test: Anti-proliferative activity, H1975; format: cell-based; settings: Homo sapiens, NCI-H1975; NSCLC-EGFR LR/TM; supplement values ± SEM; read-out: H1975 EC50
# [10] = tested on: H2228 cells; test: Anti-proliferative activity, H2228; format: cell-based; settings: Homo sapiens, NCI-H2228; NSCLC-ALK; supplement values ± SEM; read-out: H2228 EC50
# [11] = tested on: HCT-116 cells; test: Anti-proliferative activity, HCT-116; format: cell-based, human; settings: HCT-116; Human Colon Cancer; supplement values ± SEM; read-out: HCT-116 EC50
# [12] = tested on: Colo 205 cells; test: Anti-proliferative activity, Colo 205; format: cell-based; settings: Homo sapiens, COLO 205, Human Colon Cancer
# [13] = target: T1, AURKA (Homo sapiens, UniProt O14965); parameters: method as in PMID 20550212, PMID 23172777, PMID 24665000; settings: previously reported leads 1, 2, 3; cited from earlier work
# T1 construct: recombinant GST-AURKA (residues Ser123-Ser401) containing the kinase domain; GST (N); made in house; host or cells: Sf9 insect cells
# T1 sequence (O14965 123-401): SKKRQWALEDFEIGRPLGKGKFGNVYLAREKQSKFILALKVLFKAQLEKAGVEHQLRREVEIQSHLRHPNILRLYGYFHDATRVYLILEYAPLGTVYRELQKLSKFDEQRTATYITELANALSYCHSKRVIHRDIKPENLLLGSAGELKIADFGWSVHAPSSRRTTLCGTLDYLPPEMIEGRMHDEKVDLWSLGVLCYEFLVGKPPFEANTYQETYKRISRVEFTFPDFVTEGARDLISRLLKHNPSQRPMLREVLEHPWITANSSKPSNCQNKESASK
# [14] = target: T2, FLT3 (Homo sapiens, UniProt P36888); parameters: method as in PMID 20550212, PMID 23172777, PMID 24665000; settings: previously reported leads 1, 2, 3; cited from earlier work
# T2 construct: FLT3 kinase catalytic domain (residues Tyr567-Ser993); made in house; host or cells: Sf9 insect cells (baculovirus, pBac-PAK8-GST-FLT3-KD)
# T2 sequence (P36888 567-993): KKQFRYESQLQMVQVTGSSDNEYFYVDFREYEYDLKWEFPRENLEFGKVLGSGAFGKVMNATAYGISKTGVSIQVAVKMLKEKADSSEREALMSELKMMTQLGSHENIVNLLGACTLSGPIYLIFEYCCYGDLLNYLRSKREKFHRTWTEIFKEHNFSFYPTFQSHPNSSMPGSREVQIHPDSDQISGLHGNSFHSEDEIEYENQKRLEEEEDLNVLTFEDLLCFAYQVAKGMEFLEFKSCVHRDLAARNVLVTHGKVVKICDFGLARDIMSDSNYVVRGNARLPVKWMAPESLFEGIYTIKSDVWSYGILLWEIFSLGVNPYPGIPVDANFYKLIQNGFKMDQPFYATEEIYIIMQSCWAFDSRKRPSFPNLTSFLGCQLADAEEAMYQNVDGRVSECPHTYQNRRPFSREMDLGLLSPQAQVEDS
SMILES,EC50 [1] [µM],EC50 [2] [µM],EC50 [3] [µM],EC50 [4] [µM],EC50 [5] [µM],EC50 [6] [µM],EC50 [7] [µM],EC50 [8] [µM],EC50 [9] [µM],EC50 [10] [µM],EC50 [11] [µM],EC50 [12] [µM],IC50 [13] [µM],IC50 [14] [µM]
Cc1ccc(F)c(NC(=O)Nc2ccc(-c3cccc4[nH]nc(N)c34)cc2)c1 [Linifanib],0.082,0.038,> 18,16.4,6.18,> 20,> 20,9.2,8.85,8.79,8.07,,,
"Cc1cc(Nc2cc(N3CCN(C)CC3)nc(Sc3ccc(NC(=O)C4CC4)cc3)n2)[nH]n1 [VX-680, reference compound]",0.071,0.069,,,,,,,,,0.097,0.086,,
O=C(Nc1cccc(Cl)c1)Nc1ncc(CCNc2ncnc3oc(-c4ccccc4)c(-c4ccccc4)c23)s1 [Compound 3],,,,,,,,,,,,,0.043,0.322
